# Reference: EP0232423A1, “CIRCULATION IMPROVING AGENT” (GRELAN PHARMACEUTICAL CO., LTD., priority 1985, dated 1987)
# Legend:
# [1] = test system: ddY male mice; assay: Ameliorative activity against damage of cerebral hypoxia (reduced pressure); format: in vivo
# Method: Thirty mg/kg each of compound (I) (lactate) and ifenprodil tartrate and 16 mg/kg of phentolamine, which is an a-adrenoceptor blocker, were intraperitoneally administered to ddY male mice, respectively. […] Time from start of reduction of pressure until stop of respiration in the mice was measured. The control group was drug-untreated.
# [2] = test system: ddY male mice; assay: Prolongation of gasping time in complete cerebral ischemic (decapitated) animals; format: in vivo; details: for Ratio of time (%): prolongation as compared with the control group; for Duration time of gasping: decapitated after 30 minutes
# Method: After 30 minutes from administration, the.mice were decapitated and the duration time of gasping was measured. The control group was drug-untreated.
# [3] = test system: isolated coronary artery; assay: Relaxation of isolated coronary artery; format: cell-based, Mongrel dogs; details: Canis lupus familiaris, read-out: ED50 (the source's name)
# Method: Mongrel dogs of either sex (body weight 10-17 kg) were killed by bleeding under anesthetization with pentobarbital sodium (tradename: Nembutai ® Abbott Co., USA). Thereafter, the basilar and femoral arteries were extracted and attached blood and connective tissues were carefully removed in a dish filled with Krebs bicarbonate solution (composition: NaCl 117.7 mM, KC1 4.7 mM, CaCl2 2.5 mM, MgSo4 1.2 mM, glucose 10 mM, NaHCO3 24.4 mM). Thereafter, ring preparations were made therefrom. This preparation was suspended in a bathing tube of 10 ml filled with Krebs bicarbonate solution aerated with 95 % 02 and 5 % C02.
# Then, samples of basilar and femoral arteries were contracted by application of 50 mM KC1. After confirming that the contraction was sustained, (a) compound (I) (erythro form) lactate, (b) compound (I) (threo form) lactate and (c) ifenprodil; [2-(4-benzyl- piperidino-l-(4-hydroxyphenyl)propane-l-ol] tartrate were, respectively, administered as test compounds and the dose-relaxation response was examined.
# A strain gauge transducer (model SB-lT manufactured by Nihon Koden Co.) was employed for recording of change of tension and isometric contraction was recorded on a recorder (model QPD 53 made by Hitachi Ltd . ) .
# Experiments were conducted in accordance with the method of Test Example 2 with use of the coronary artery in place of the basilar and femoral arteries. […]
# [4] = test system: α2-adrenoceptor; assay: Antagonism of clonidine (α2-agonist) contraction in saphenous vein; format: cell-based, Mongrel dogs; details: for antagonism on the α2-agonist: clonidine
# Text: (§1) In this experiment, phenylephrine and clonidine were used as al-agonist and a2-agonist, respectively, and these agonists were cumulatively applied to obtain a dose-response curve.
# [5] = test system: α1-adrenoceptor; assay: Antagonism of phenylephrine (α1-agonist) contraction in saphenous vein; format: cell-based, Mongrel dogs
# Text: as §1
# [6] = test system: isolated femoral artery; assay: K-induced 45Ca influx in isolated femoral artery; format: cell-based, Mongrel dogs; details: 10^-5 M + 50 mM KCl
# Text: (§2) Using the isolated basilar artery and femoral artery treated in accordance with Test Example 2, the activity of (a) compound (I) (lactate), (b) ifenprodil tartrate and (c) verapamil hydrochloride against ^45Ca influx and ^45Ca uptake were examined by the conventional method (J. Membran. Biol., vol. 59, page 19, 1981).
# [7] = test system: isolated basilar artery; assay: PGF2α-induced 45Ca uptake in isolated basilar artery; format: cell-based, Mongrel dogs; details: 10^-5 M + 10^-5 M PGF2α; PGF2α alone 166.2 ± 6.0
# Text: as §2
# [8] = test system: isolated femoral artery; assay: K-induced 45Ca uptake in isolated femoral artery; format: cell-based, Mongrel dogs; details: 50 mM KCl alone 586.0 ± 17.9
# Text: as §2
# [9] = test system: platelets of rabbit; assay: Fluidity of platelet membrane (fluorescence polarization); format: cell-based; design: Fluorescence polarization: unit not given here; details: for Fluorescence polarization: fluidity increases as value decreases
# Text: The activity of compound (I) (lactate) and ifenprodil tartrate against the fluidity of platelet membrane was examined according to a known method (Biochimica et Biophysica Acta, vol. 798, page 210, 1984) using platelets of rabbit and using n-butyl alcohol as a positive control.
# [10] = test system: isolated femoral artery; assay: Ca antagonistic action: Ca-induced contraction in K-depolarized femoral artery; format: cell-based, Mongrel dogs; details: Canis lupus familiaris, 0.25 h, 50 mM KCl, Ca-free bath, cumulative CaCl2, compound applied 15 minutes before, read-out: pA2 values on Ca-induced contraction in depolarized muscle by K (converted)
# Method: (§3) The same measurements as in Test Example 2 were carried out using the isolated basilar artery and isolated femoral artery treated in accordance with the method of Test Example 2.
# (§4) For examination of the Ca antagonistic action, the depolarization of both isolated arteries was induced with 50 mM KC1 in a bathing solution from which Ca had been removed and then CaCl2 was cumulatively applied thereto. As test compounds, (a) compound (I) (erythro form) lactate and (b) ifenprodil tartrate were applied at 15 minutes before addition of CaCl2.
# [11] = test system: isolated basilar artery; assay: Ca antagonistic action: Ca-induced contraction in K-depolarized basilar artery; format: cell-based, Mongrel dogs; details: Canis lupus familiaris, 0.25 h, 50 mM KCl, Ca-free bath, cumulative CaCl2, compound applied 15 minutes before, read-out: pA2 values on Ca-induced contraction in depolarized muscle by K (converted)
# Method: as §3, §4
# [12] = Acute toxicity (LD50); details: mouse, in vivo, mice
# [13] = test system: ddY male mice; assay: Thromboembolic respiratory depression induced by ADP; format: in vivo; details: 30 mg/kg oral, ADP 40 mg/kg i.v., Compound (I) = erythro form
# Method: The degree of formation of platelet thrombi in the pulmonary vessels of mice induced by intravenous administration of ADP can be measured based on the decrease in the respiratory rate. The anti-platelet thrombotic action of test drugs can be evaluated by using this decrease in the respiratory rate as a standard. […] Relative respiratory rate (%) was calculated according to the following formula. [formula] (cf. "Thrombosis Research", Vol. 35, Page 311, 1984)
# [14] = test system: mice; assay: Protective action on death caused by endotoxin shock; format: in vivo; details: for Number of survival after administration of endotoxin: of 15 (Compound (I)) or 14 (ifenprodil) animals
# Text: Compound (I) and ifenprodil tartrate were orally administered to mice and the protective action on death due to endotoxin shock was examined in accordance with a known method (Folia pharmacol. japon, vol. 86, page 17, 1985). The control group was drug-untreated.
# [15] = test system: male mice; assay: Serum total cholesterol and β-lipoprotein in mice fed high cholesterol food; format: in vivo; details: 200 mg/kg oral on 6th and 7th day, high cholesterol food 7 days, three male mice
# Method: Three male mice were fed high cholesterol food for 7 days and 200 mg/kg of compound (I) was orally administered on the 6th day and the 7th day. After a fast over night from the 7th day, measurements of the total cholesterol in serum (Abell et al, "Standard Method of Clinical Chemistry", vol. 2, page 26, […], published by Academic Press; Kanai et al, "[…]", vol. 7, page 64, 1978, published by Kanehara Shuppan) and the amount of β-lipoprotein (Fried-Hoeflmayer, Klin. Wschr., vol. 41, page 246, 1963; Kanai et al, "Rinsho Kensaho Teiyo", vol. 7, page 79, 1978, published by Kanehara Shuppan) were conducted. The control group was compound (I)-untreated.
# [16] = test system: male mice; assay: Isoproterenol-induced tachycardia; format: in vivo; details: 25 mg/kg oral, 30 minutes before 0.01 mg/kg isoproterenol i.v.; three male mice
# Method: 25 mg/kg of compound (I) was orally administered to three male mice. After 30 minutes from administration, 0.01 mg/kg of isoproterenol, which is a β-agonist, was intravenously administered, and the effect of compound (I) on tachycardia induced by isoproterenol was observed. The control group was compound (I) - untreated.
structure (smiles),measurement,setting,value
CC(C(O)c1ccc(OCc2ccccc2)cc1)N1CCC(Cc2ccccc2)CC1 (centres unmarked) [Compound (I) lactate],Time required for stoppage of respiration,"[1]; 30 mg/kg intraperitoneally, 30 minutes before, pressure reduced to 160 mmHg",126.1 ± 12.1 s
same,Ratio of time (%),[2]; 3 mg/kg i.p.,3.8%
same,Duration time of gasping,[2]; 3 mg/kg intraperitoneally,21.7 ± 0.4 s
same,Ratio of time (%),[2]; 10 mg/kg i.p.,27.8%
same,Duration time of gasping,[2]; 10 mg/kg intraperitoneally,26.7 ± 1.8 s
same,Ratio of time (%),[2]; 30 mg/kg i.p.,116.3%
same,Duration time of gasping,[2]; 30 mg/kg intraperitoneally,45.2 ± 3.5 s
same,EC50,[3],2.2 µM
same,pD2' value,"[4]; α2 - agonist: clonidine, non-competitive antagonism, 15 min",pD2' = 4.87^Note 4)
same,pA2 value,"[5]; α1 - agonist: phenylephrine, saphenous vein, 15 minutes treatment",pA2 = 7.03 ± 0.04
same,K-induced ^45Ca influx in isolated femoral artery,"[6]; pre-incubation 15 min, 50 mM KCl alone 94.6 ± 5.2",106.2 ± 4.1 n mol/g wt. tissue
same,K-induced ^45Ca influx in isolated femoral artery,"[6]; pre-incubation 45 min, 50 mM KCl alone 98.4 ± 6.8",38.2 ± 2.6 n mol/g wt. tissue
same,K-induced ^45Ca influx in isolated femoral artery,[6]; pre-incubation 135 min,28.3 ± 1.1 n mol/g wt. tissue
same,PGF2α-induced ^45Ca uptake in isolated basilar artery,[7],135.2 ± 12.7 (*) n mol/g wt. tissue
same,K-induced ^45Ca uptake in isolated femoral artery,[8]; 10^-4 M + 50 mM KCl,378.8 ± 27.9 n mol/g wt. tissue
same,K-induced ^45Ca uptake in isolated femoral artery,[8]; 10^-5 M + 50 mM KCl,461.4 ± 26.7 n mol/g wt. tissue
same,K-induced ^45Ca uptake in isolated femoral artery,[8]; 10^-6 M + 50 mM KCl,724.4 ± 32.4 n mol/g wt. tissue
same,effect on fluidity of platelet membrane,[9],an increase in the fluitidy of platelet membrane
same,Kb,[10],1.55 µM
same,Kb,[11],0.0186 µM
"CC(C(O)c1ccc(OCc2ccccc2)cc1)N1CCC(Cc2ccccc2)CC1 (stereo not drawn) [Compound (I), 2-(4-benzylpiperidino)-l-(4-benzyloxyphenyl)propan-l-ol]",effect on survival time (cerebral hypoxia),"[1]; i.p., 30 mg/kg compound (I) and ifenprodil tartrate, 16 mg/kg phentolamine",markedly prolongs survival time
same,antagonism on the α2-agonist,[4]; concentration of 10^-5 M,non- competitive antagonism
same,antagonism on the α2-agonist,[4]; concentration of 10^-6 M,No competitive antagonism is recognized
same,LD50,"[12]; iv, venous injection",> 70 mg/kg
same,LD50,[12]; oral,> 1200 mg/kg
same,competitive antagonism on the α1-agonist relative to that of ifenprodil,[5]; compared by pA2 value,about 1/15
same,competitive antagonism on the α1-agonist relative to that of prazosin,[5]; compared by pA2 value,about 1/8
same,Relative respiratory rate (%),[13]; 1/3 hr after administration,53.1 ±11.7 (n=7) %
same,Relative respiratory rate (%),[13]; 1 hr after administration,51.2 ±5.6 (n=10) %
same,Relative respiratory rate (%),[13]; 2 hr after administration,52.8 ±7.4 (n=10) %
same,Relative respiratory rate (%),[13]; 3 hr after administration,49.0 ±8.4(*) (n=9) %
same,Relative respiratory rate (%),[13]; 5 hr after administration,41.9 ±11.5 (n=8) %
same,Number of survival after administration of endotoxin,"[14]; 70 mg/kg oral, 18 hr",12
same,Number of survival after administration of endotoxin,"[14]; 70 mg/kg oral, 20 hr",9
same,Number of survival after administration of endotoxin,"[14]; 70 mg/kg oral, 22 hr",8
same,Number of survival after administration of endotoxin,"[14]; 70 mg/kg oral, 24 hr",5
same,Number of survival after administration of endotoxin,"[14]; 70 mg/kg oral, 48 hr",1
same,Number of survival after administration of endotoxin,"[14]; 200 mg/kg oral, 18 hr",13
same,Number of survival after administration of endotoxin,"[14]; 200 mg/kg oral, 20 hr",13
same,Number of survival after administration of endotoxin,"[14]; 200 mg/kg oral, 22 hr",10
same,Number of survival after administration of endotoxin,"[14]; 200 mg/kg oral, 24 hr",7
same,Number of survival after administration of endotoxin,"[14]; 200 mg/kg oral, 48 hr",5
same,protective action on the death (endotoxin shock),"[14]; oral, mice, compound (I) at 200 mg/kg",remarkable protective action on the death
same,Reduction % as compared with control group Total cholesterol,[15]; serum,8%
same,Reduction % as compared with control group β-lipoprotein,[15],18%
same,Inhibition % of isoproterenol-induced tachycardia,[16],23%
same,Fluorescence polarization,[9]; 1 µM,2±4
same,Fluorescence polarization,[9]; 10 µM,0±8
same,Fluorescence polarization,[9]; 30 µM,-2±0
same,Fluorescence polarization,[9]; 100 µM,-22±7
